Where “and” joins values, the source holds several entries; their conditions need not be identical. Equal entries are not always repeated. Marks after values point to notes of the source that are not given here.
Tests used:
[1] = system: Meloidogyne incognita; assay: M. incognita miniaturized greenhouse assay on cucumber seedlings (root galling); format: in vivo; conditions: cucumber roots, average of triplicate gall rating; for 8 ppm gall ratings: scale 0=0-5%, 1=6-20%, 2=21-50%, 3=51-100% root mass galled; for 1 ppm gall ratings: scale 0-3
Method: The test compound is dissolved in an acetone solution and added to water. A sprouted cucumber seedling is placed into a vial with dry sand and the water-chemical solution is added immediately. Twenty four hours later Meloidogyne incognita eggs are added to the vials and 10 to 12 days later the roots are evaluated for nematode galling.
Cucumber seeds are sprouted for 3 days in moist paper towels. Acceptable sprouts should be 3 to 4 cm long with several lateral roots just emerging. Stock solutions of chemistry are prepared in a mixture of acetone and Triton X100 (412 mg in 500 mL) to a final concentration of 5 mg/mL. The chemical stock solution is then added to 10 mL deionized water plus 0.015% Triton X100 and mixed thoroughly. This is enough to test each condition in triplicate. Ten mL dry sand is added to each vial. At this time the solubility of the chemistry is visually determined and recorded as either ppt (large precipitates) or cloudy (fine precipitates). Seedlings are planted by tilting the vial and laying the seedling in the correct orientation so that the cotyledons are just above the sand and then tilting back to cover the radicles with sand. 3.3 ml water/chemical mix is added to each vial and the vials placed in racks under fluorescent light banks. The vials are inoculated two days after planting by adding 500 vermiform M. incognita eggs to each vial in 50 uL of deionized or spring water. The vials are then kept under the fluorescent lamps at ambient room temperature and watered as needed with 1 mL deionized water, usually twice during duration of test. Harvest of the cucumber plants is done 10 to 12 days after inoculation by washing sand off the roots. A root gall rating and visual phytotoxicity rating is assigned using the following scales: Gall rating scale (Gall: % root mass galled): 0=0-5%; 1=6-20%; 2=21-50%; and 3=51-100%. The average of the triplicate gall rating is then calculated: green=0.00-0.33 (no galls); yellow=0.67-1.33 (mild galling); orange=1.67-2.33 (moderate galling); red=2.67-3.00 (severe galling). Visual phytotoxicity scale is also assigned (Vis. tox; visual reduction in root mass compared to the control): rs1=mild stunting; rs2=moderate stunting; rs3=severe stunting.

[2] = system: root knot nematode (RKN); assay: RKN greenhouse soil assay on cucumber plants; format: in vivo, Meloidogyne incognita; conditions: 0 day treatment, rated 14 days after egg inoculation
From the text: Cucumber seeds are planted in a sandy soil mixture in two inch square plastic pots. When the cotyledons are fully opened and just as the first leaf begins to emerge, usually 7 days after planting, chemistry for the 7-day treatment is applied. One week later the chemistry for the 0 day treatment is applied. Separate plants are used for each application. The plants are generally in the 1-2 leaf stage now. At least four hours after the chemistry application the pots are inoculated with root knot nematode (RKN) eggs. Plants are rated for galling 14 days after the egg inoculation.
(§1) One milligram of chemistry per four pots is equal to one kilogram per hectare of chemical. A standard test uses four replications. For rates above 2 kg/ha, the desired amount of chemical is weighed into a 30 ml vial (example: 8 kg/ha rate=8 mg chemical in 30 ml vial). The chemical is dissolved in 2 ml of appropriate solvent, generally acetone. For rates below 2 kg/ha, 2 milligrams of chemistry is weighed into the vial and dissolved in 2 ml of the solvent. The appropriate amount of chemical concentrate is then pipetted into a separate 30 ml vial and solvent is added to bring the volume to 2 ml (example 0.5 kg/ha=0.5 ml of concentrate+1.5 ml solvent). Each dissolved concentrate is then brought to a total of 20 milliliters using 0.05% Triton X 100 surfactant solution.
(§2) Pots to be treated are moist but not saturated. To each of four pots, five milliliters of the appropriate chemical solution is pipetted to the media surface making sure to avoid contact with the base of the plant. Immediately following chemical application, using a mist nozzle, the pot surface is wetted sufficiently to saturate the pot watering in the chemistry. The chemical application is done in the morning.
Nematode eggs, either SCN or RKN, are added to distilled water to create a concentration of 1000 vermiform eggs […]. At least four hours after chemical treatment the eggs are applied to the treated pots plus non-treated check plants. A small hole about 1 cm deep is punched into the pot surface. […]

[3] = system: soybean cyst nematode (SCN); assay: SCN greenhouse soil assay on soybean plants; format: in vivo, Heterodera glycines; conditions: 0 day treatment, harvested 28 days after egg inoculation, tests a and b
From the text: Soybeans seeds are planted in 100% sand in two inch square plastic pots. Chemical treatment is done when the soybeans show the first trifoliate beginning to emerge about 10 to 12 days after planting. At least four hours after chemical application the nematode soybean cyst nematode (SCN) eggs are applied and 28 days after the egg inoculation the test is harvested.
as §1, §2
Nematode eggs, either SCN or RKN, are added to distilled water to create a concentration of 1000 vermiform eggs […]. At least four hours after chemical treatment the eggs are applied to the treated pots plus non-treated check plants. A small hole about 1 cm deep is punched into the pot surface. One milliliter of the nematode egg slurry is pipetted into the hole. Immediately afterwards the hole is gently covered. Watering of the test plants is then restricted to only water as needed to prevent wilt for a period of 24 hours. […]

| Structure (SMILES) | 8 ppm gall ratings [1] | percent control (galling reduction) relative to the control blank treatment, 0 day 1 kg/ha rate [2] [%] | percent control (cyst reduction) relative to the control blank treatment, 0 day 0.25 kg/ha rate [3] | 1 ppm gall ratings [1] |
| --- | --- | --- | --- | --- |
| Clc1ccc(-c2noc(Cc3ccco3)n2)cc1 [Name 1, 3-(4-chlorophenyl)-5-(furan-2-ylmethyl)-1,2,4-oxadiazole] | 1.3^a | – | – | – |
| Clc1cccc(-c2noc(Cc3ccco3)n2)c1 [Name 2, 3-(3-chlorophenyl)-5-(furan-2-ylmethyl)-1,2,4-oxadiazole] | 1.3^a | – | – | – |
| Clc1ccc(Oc2noc(-c3ccco3)n2)cc1 [Name 3, 3-(4-chlorophenoxy)-5-(furan-2-yl)-1,2,4-oxadiazole] | 0^b | 89 | 79%^a, 79%^b | – |
| Clc1cccc(Oc2noc(-c3ccco3)n2)c1 [Name 4, 3-(3-chlorophenoxy)-5-(furan-2-yl)-1,2,4-oxadiazole] | 0^b | 83 | 67% and 78% | – |
| Clc1ccc(Cc2nsc(-c3ccco3)n2)cc1 [Name 5, 3-(4-chlorobenzyl)-5-(furan-2-yl)-1,2,4-thiadiazole] | 0.67^b | – | – | – |
| Clc1ccc(-c2coc(-c3ccco3)n2)c(Cl)c1 [Name 6, 4-(2,4-dichlorophenyl)-2-(furan-2-yl)oxazole] | 0.33^c | – | – | – |
| Cc1ccc(-c2coc(-c3ccco3)n2)c(C)c1 [Name 7, 4-(2,4-dimethylphenyl)-2-(furan-2-yl)oxazole] | 1.33^c | – | – | – |
| Clc1ccc(-c2coc(-c3ccco3)n2)cc1 [Name 8, 4-(4-chlorophenyl)-2-(furan-2-yl)oxazole] | 0.67^d | – | – | – |
| Clc1ccc(-c2cnc(Sc3cccs3)o2)cc1 [Name 9, 5-(4-chlorophenyl)-2-(thiophen-2-ylthio)oxazole] | 1.33^d | – | – | – |
| Clc1ccc(-c2cnc(-n3cccc3)o2)cc1 [Name 10, 5-(4-chlorophenyl)-2-(1H-pyrrol-1-yl)oxazole] | – | 100 | – | 1.33 |
| CNC(=O)O/N=C(\SC)C(=O)N(C)C [Oxamyl, reference compound] | – | – | 67%^b | 1.33^e |

From patent publication US9820486B2, “Compositions and methods for controlling nematodes” (Monsanto Technology LLC, priority 2009, dated 2017)
